Source: PMC9967085, “Properly Substituted Benzimidazoles as a New Promising Class of Nicotinate Phosphoribosyltransferase (NAPRT) Modulators” (Pharmaceuticals, 2023)
Read-outs that look alike come from different tables or passages of the source.

How the values were obtained:
NAPRT [1] = biological target: NAPRT; set-up: method as in PMID 4333776; settings: cited from earlier work
Human recombinant NAPRT = biological target: T1, Human recombinant NAPRT (Homo sapiens, UniProt Q6XQN6); experiment: HPLC-based NAPRT activity screening assay; format: biochemical
T1 construct: made in house
T1 sequence (Q6XQN6 1-538): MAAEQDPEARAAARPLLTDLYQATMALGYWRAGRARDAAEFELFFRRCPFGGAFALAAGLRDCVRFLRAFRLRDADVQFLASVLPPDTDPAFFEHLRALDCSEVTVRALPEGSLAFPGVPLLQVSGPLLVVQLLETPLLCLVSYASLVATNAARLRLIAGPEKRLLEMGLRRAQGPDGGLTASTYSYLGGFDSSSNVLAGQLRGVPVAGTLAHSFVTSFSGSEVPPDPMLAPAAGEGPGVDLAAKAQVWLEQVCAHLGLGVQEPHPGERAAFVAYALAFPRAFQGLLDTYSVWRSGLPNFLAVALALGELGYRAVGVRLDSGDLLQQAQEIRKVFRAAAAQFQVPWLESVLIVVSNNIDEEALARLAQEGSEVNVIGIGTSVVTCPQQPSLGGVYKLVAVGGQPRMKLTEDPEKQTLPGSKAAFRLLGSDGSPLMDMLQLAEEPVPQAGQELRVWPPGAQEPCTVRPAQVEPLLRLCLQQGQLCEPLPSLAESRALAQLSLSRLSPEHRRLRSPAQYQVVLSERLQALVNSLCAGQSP

NAPRT [2] = system: NAPRT; set-up: method as in PMID 35890155; settings: cited from earlier work
NAPRT [3] = biological target: NAPRT; set-up: method as in PMID 35890147; settings: cited from earlier work
NAPRT [4] = biological target: NAPRT; set-up: method as in PMID 4255930; settings: cited from earlier work
[5] = 1 mM compound, 0.2 mM NA, 0.4 mM PRPP
[6] = 1 mM compound, 0.2 mM NA, 0.4 mM PRPP, read-out: % Inhibition
[7] = 1 mM compound, 0.2 mM NA, 0.4 mM PRPP, read-out: % Inhibition (not active class)

Row | -Fold Stimulation (Human recombinant NAPRT; [5]) | inhibition at 1000 µM (Human recombinant NAPRT; [6]) | inhibition at 1000 µM (Human recombinant NAPRT; [7]) | Molecule | -Fold Stimulation (not active class) (Human recombinant NAPRT; [5]) | further results
1 |  |  |  | O=C(O)c1ccccc1O [Compound 7, salicylic acid] |  | Ki (NAPRT [1]): 160 µM
2 | 0 fold | 0% | < 10% | Cc1nc2cc(NCc3ccc(N)cc3)ccc2n1C [Compound 28, N-(4-aminobenzyl)-1,2-dimethyl-1H-benzo[d]imidazol-5-amine] | - (Not active, it is referred to compounds showing less than 10% inhibition or less than 1.10-fold stimulation) | 
3 |  | 1.9 ± 0.9% | < 10% | Cc1nc2cc(NCc3ccc(CN)cc3)ccc2n1C [Compound 27, N-(4-(aminomethyl)benzyl)-1,2-dimethyl-1H-benzo[d]imidazol-5-amine] | - (Not active, it is referred to compounds showing less than 10% inhibition or less than 1.10-fold stimulation) | 
4 |  |  |  | CCCCC1C(=O)N(c2ccccc2)N(c2ccccc2)C1=O [Compound 4, phenylbutazone] |  | Ki (NAPRT [1]): 160 µM
5 | 0 fold | 0% | < 10% | CC(=O)Nc1ccc(CN(C)c2ccc3c(c2)nc(C)n3C)cc1 [Compound 30, N-(4-(((1,2-dimethyl-1H-benzo[d]imidazol-5-yl)(methyl)amino)methyl)phenyl) acetamide] | - (Not active, it is referred to compounds showing less than 10% inhibition or less than 1.10-fold stimulation) | 
6 |  |  |  | O=C(Cn1c(=O)sc2ccccc21)Nc1cccc(C(=O)O)c1 [Compound 11] |  | IC50 (NAPRT [2]): 232 µM
7 |  |  |  | CC(C)(C)C(=O)OCCCn1cc(CCCN2C[C@@H](O)[C@@H](O)[C@@H]2NC(=O)c2ccccc2)nn1 [Compound 8] |  | IC50 (NAPRT [2]): 327 µM
8 |  |  |  | O=C(N[C@@H](C(=O)c1ccccc1)n1cnccc1=O)c1ccccc1 [Compound 13] |  | Ki (NAPRT [3]): 2300 µM
9 | 0 fold | 0% | < 10% | CC(=O)NCc1cccc(CN(C)c2ccc3c(c2)nc(C)n3C)c1 [Compound 21, N-(3-(((1,2-dimethyl-1H-benzo[d]imidazol-5-yl)(methyl)amino)methyl)benzyl) acetamide] | - (Not active, it is referred to compounds showing less than 10% inhibition or less than 1.10-fold stimulation) | 
10 |  |  |  | Cc1cccc(Nc2ccccc2C(=O)O)c1C [Compound 6, mefenamic acid] |  | Ki (NAPRT [1]): 76 µM
11 |  |  |  | NCc1cc2c(cc1Cl)OCO2 [Compound 10] |  | IC50 (NAPRT [2]): 160 µM
12 |  | 30% |  | CC(=O)NCc1cccc(CNc2ccc3c(c2)nc(C)n3C)c1 [Compound 17, N-(3-(((1,2-dimethyl-1H-benzo[d]imidazol-5-yl)amino)methyl)benzyl)acetamide] | -^b (Not active, it is referred to compounds showing less than 10% inhibition or less than 1.10-fold stimulation) | % Inhibition (Human recombinant NAPRT; [5]): 30.3 ± 6.0%
13 | 1.08 ± 0.03 fold |  |  | N-(3-(((1,2-dimethyl-1H-benzo[d]imidazol-5-yl)(methyl)amino)methyl)benzyl) acetamide [Compound 33] | - (Not active, it is referred to compounds showing less than 10% inhibition or less than 1.10-fold stimulation) | % Inhibition (not active class) (Human recombinant NAPRT; [5]): - (Not active, it is referred to compounds showing less than 10% inhibition or less than 1.10-fold stimulation)
14 |  |  |  | O=C(O)c1cnccc1O [Compound 15] |  | Ki (NAPRT [3]): 308 µM
15 |  |  |  | O=C(O)c1cccnc1F [Compound 2] |  | Ki (NAPRT [4]): 280 µM
16 | 1.44 ± 0.04 fold |  | < 10% | Cc1nc2cc(N(C)Cc3cccc(N)c3)ccc2n1C [Compound 24, N-(3-aminobenzyl)-N,1,2-trimethyl-1H-benzo[d]imidazol-5-amine] |  | Effect on NAPRT catalytic activity (in words) (Human recombinant NAPRT): NAPRT activators
17 |  |  |  | O=C(NC(Sc1ccncn1)C(=O)c1ccccc1)c1ccccc1 (stereo not drawn) [Compound 14] |  | Ki (NAPRT [3]): 89 µM
18 |  |  |  | O=C(O)c1ccccc1Nc1cccc(C(F)(F)F)c1 [Compound 5, flufenamic acid] |  | Ki (NAPRT [1]): 46 µM
19 |  |  |  | O=C(O)c1cnsn1 [Compound 16] |  | Ki (NAPRT [3]): 295 µM
20 |  |  |  | CC(C)(C)C(=O)OCCCn1cc(CCCN2C[C@@H](O)[C@@H](O)[C@@H]2Cn2cc(-c3ccccc3)nn2)nn1 [Compound 9] |  | IC50 (NAPRT [2]): 242 µM
21 |  | 1.3% | < 10% | CC(=O)Nc1ccc(CNc2ccc3c(c2)nc(C)n3C)cc1 [Compound 26, N-(4-(((1,2-dimethyl-1H-benzo[d]imidazol-5-yl)amino)methyl)phenyl)acetamide] | - (Not active, it is referred to compounds showing less than 10% inhibition or less than 1.10-fold stimulation) | 
22 | 1.47 ± 0.07 fold |  |  | N-(3-(((1,2-dimethyl-1H-benzo[d]imidazol-5-yl)amino)methyl)benzyl)acetamide [Compound 32] |  | Effect on NAPRT catalytic activity (in words) (Human recombinant NAPRT): NAPRT activators; % Inhibition (not active class) (Human recombinant NAPRT; [5]): - (Not active, it is referred to compounds showing less than 10% inhibition or less than 1.10-fold stimulation)
23 |  | 0.6 ± 0.9% | < 10% | Cc1nc2cc(NCc3cccc(CN)c3)ccc2n1C [Compound 19, N-(3-(aminomethyl)benzyl)-1,2-dimethyl-1H-benzo[d]imidazol-5-amine] | - (Not active, it is referred to compounds showing less than 10% inhibition or less than 1.10-fold stimulation) | Effect on NAPRT catalytic activity (in words) (Human recombinant NAPRT): inactive
24 | 1.58 ± 0.07 fold |  | < 10% | Cc1nc2cc(N(C)Cc3ccc(CN)cc3)ccc2n1C [Compound 31, N-(4-(aminomethyl)benzyl)-N,1,2-trimethyl-1H-benzo[d]imidazol-5-amine] |  | Effect on NAPRT catalytic activity (in words) (Human recombinant NAPRT): NAPRT activators
25 |  | 13 ± 3.1% |  | CC(=O)NCc1ccc(CNc2ccc3c(c2)nc(C)n3C)cc1 [Compound 25, N-(4-(((1,2-dimethyl-1H-benzo[d]imidazol-5-yl)amino)methyl)benzyl)acetamide] | - (Not active, it is referred to compounds showing less than 10% inhibition or less than 1.10-fold stimulation) | Effect on NAPRT catalytic activity (in words) (Human recombinant NAPRT): inhibit NAPRT activity
26 |  |  |  | CC(Oc1ccccc1Cl)C(=O)Nc1cccc(C(=O)O)c1 (stereo not drawn) [Compound 12] |  | IC50 (NAPRT [2]): 265 µM
27 | 1.14 ± 0.05 fold |  | < 10% | Cc1nc2cc(N(C)Cc3cccc(CN)c3)ccc2n1C [Compound 23, N-(3-(aminomethyl)benzyl)-N,1,2-trimethyl-1H-benzo[d]imidazol-5-amine] |  | Effect on NAPRT catalytic activity (in words) (Human recombinant NAPRT): NAPRT activators
28 |  | 12 ± 2.2% |  | CC(=O)NCc1ccc(CN(C)c2ccc3c(c2)nc(C)n3C)cc1 [Compound 29, N-(4-(((1,2-dimethyl-1H-benzo[d]imidazol-5-yl)(methyl)amino)methyl)benzyl) acetamide] | - (Not active, it is referred to compounds showing less than 10% inhibition or less than 1.10-fold stimulation) | Effect on NAPRT catalytic activity (in words) (Human recombinant NAPRT): inhibit NAPRT activity
29 | 1.25 ± 0.05 fold |  | < 10% | Cc1nc2cc(NCc3cccc(N)c3)ccc2n1C [Compound 20, N-(3-aminobenzyl)-1,2-dimethyl-1H-benzo[d]imidazol-5-amine] |  | Effect on NAPRT catalytic activity (in words) (Human recombinant NAPRT): NAPRT activators
30 |  | 5 ± 1.2% | < 10% | CC(=O)Nc1cccc(CN(C)c2ccc3c(c2)nc(C)n3C)c1 [Compound 22, N-(3-(((1,2-dimethyl-1H-benzo[d]imidazol-5-yl)(methyl)amino)methyl)phenyl) acetamide] | - (Not active, it is referred to compounds showing less than 10% inhibition or less than 1.10-fold stimulation) | 
